The text below walks through data of US5516790A, “Synthesis and application of alkyl-substituted dibenzofurans as antitumorigenic agents” (Texas A&M University System Technology Licensing Office, priority 1994, dated 1996).

For assay [1], the system named is MCF-7 human breast cancer cells. Put plainly: Growth of MCF-7 human breast cancer cells. The following applies: MCDF. In kind it is cell-based.
In the next assay the test system is female rat uterus. Nature of the assay: Antiestrogenic effect on uterine wet weight, immature female Sprague-Dawley rats (Example 8). The following applies: run A. In kind it is in vivo.
Assay [2] concerns uterus. The conditions noted are these: cited from earlier work.
For a further assay, the system named is estrogen receptor (ER). Put plainly: Uterine estrogen receptor levels, hydroxyapatite assay (Example 8). In kind it is in vivo, female Sprague-Dawley rats. The following applies: run A.
The subject of assay [3] is uterus. The following applies: weanling female C57BL/6 mice; cited from earlier work.
Where [4] appears, read: 150 μmol/kg + E-2 (2 × 10 μg/rat).
Where [5] appears, read: compound alone, 150 μmol/kg (17β-estradiol: 2 × 10 μg/rat).

`Cc1cc(Cl)cc2c1oc1cc(Cl)cc(Cl)c12` [MCDF, 6-methyl 1,3,8-trichlorodibenzofuran]: the “17β-estradiol-induced growth of MCF-7 cells” value in assay [1] is recorded as “inhibits”. Moreover, the “Uterine Wet Weight” value came to 0.194 ± 0.023 % body wt in the assay with female rat uterus (setting [4]) and 0.104 ± 0.004 % body wt in the assay on female rat uterus (setting [5]). The “17β-estradiol-induced increases in rat uterine wet weight” value in the assay on uterus [2] is reported as “active as an antiestrogen”. Further, the “uterotrophic effects of 17β-estradiol” value with uterus [2] (rat, in vivo) is given as “inhibits”. The “Estrogen Receptor Levels, Cytosolic” value in the assay on estrogen receptor (ER) (setting [4]) worked out at 78.9 ± 79.1 fmol/mg protein; in the assay with estrogen receptor (ER) (setting [5]), 55.1 ± 0.9 fmol/mg protein. In addition, the “Estrogen Receptor Levels, Nuclear” value with estrogen receptor (ER) (setting [4]) is given as 43.3 ± 73.4 fmol/mg protein; in the assay with estrogen receptor (ER) (setting [5]), 49.3 ± 10.2 fmol/mg protein.

For the compound `Clc1cc2c(cc1Cl)Oc1cc(Cl)c(Cl)cc1O2` [TCDD, 2,3,7,8-tetrachloridibenzo-p-dioxin], in the assay on uterus [3], the uterine weights result is given as “decreased”.
